Source: ChEMBL document CHEMBL3045673, “Synthesis of some novel 2-substituted benzoxazoles as anticancer, antifungal, and antimicrobial agents” (2008)
Active and inactive are the calls of the source. The rule behind the calls is not given here.

What was measured:
Aspergillus niger = assay: Antifungal activity against Aspergillus niger at 50 ug/ml after 48 hr by agar plate diffusion method; type: functional
Staphylococcus aureus = assay: Antibacterial activity against Staphylococcus aureus at 10 ug/ml after 24 hr by disk diffusion method; type: functional; details: read-out: DIZ
MCF7 = assay: Cytotoxicity against Homo sapiens (human) MCF7 cells by MTT assay; type: functional, cell-based
HepG2 = assay: Cytotoxicity against Homo sapiens (human) HepG2 cells by MTT assay; type: functional, cell-based
WiDr = assay: Cytotoxicity against Homo sapiens (human) WiDr cells by MTT assay; type: functional, cell-based
HeLa = assay: Cytotoxicity against Homo sapiens (human) HeLa cells by MTT assay; type: functional, cell-based
Aspergillus flavus = assay: Antifungal activity against Aspergillus flavus at 50 ug/ml after 48 hr by agar plate diffusion method; type: functional
Klebsiella pneumoniae = assay: Antibacterial activity against Klebsiella pneumoniae at 10 ug/ml after 24 hr by disk diffusion method; type: functional; details: read-out: DIZ
Pseudomonas aeruginosa = assay: Antibacterial activity against Pseudomonas aeruginosa at 10 ug/ml after 24 hr by disk diffusion method; type: functional; details: read-out: DIZ

With `COc1ccc(/C=C(\C#N)c2nc3cc(Cl)ccc3o2)cc1` the inhibition at 50 µg/mL (Aspergillus niger) was 65%, the zone of inhibition at 10 µg/mL (Staphylococcus aureus) was 5 mm and the Activity (MCF7) was “Active”. For the same compound, the Activity (HepG2) was “Active”, the Activity (WiDr) was “Active” and the Activity (HeLa) was “Active”. The inhibition at 50 µg/mL (Aspergillus flavus) was 65%, the zone of inhibition at 10 µg/mL (Klebsiella pneumoniae) was 10 mm and the zone of inhibition at 10 µg/mL (Pseudomonas aeruginosa) was 10 mm.
In the case of `COc1cc(/C=C(\C#N)c2nc3cc(F)ccc3o2)cc(OC)c1OC`, the inhibition at 50 µg/mL (Aspergillus niger) is reported as 95%, the zone of inhibition at 10 µg/mL (Staphylococcus aureus) is reported as 20 mm and the Activity (MCF7) is reported as “Active”. For the same compound, the Activity (HepG2) was “Active”, the Activity (WiDr) was “Active” and the Activity (HeLa) was “Active”. The inhibition at 50 µg/mL (Aspergillus flavus) was 90%, the zone of inhibition at 10 µg/mL (Klebsiella pneumoniae) was 15 mm and the zone of inhibition at 10 µg/mL (Pseudomonas aeruginosa) was 20 mm.
`N#CC(=C1CCCC1)c1nc2cc(Cl)ccc2o1` was tested, and the inhibition at 50 µg/mL (Aspergillus niger) was 75%, the zone of inhibition at 10 µg/mL (Staphylococcus aureus) was 15 mm and the Activity (MCF7) was “Active”. The Activity (HepG2) was “Active”, the Activity (WiDr) was “Active” and the Activity (HeLa) was “Active”. The inhibition at 50 µg/mL (Aspergillus flavus) was 60%, the zone of inhibition at 10 µg/mL (Klebsiella pneumoniae) was 10 mm and the zone of inhibition at 10 µg/mL (Pseudomonas aeruginosa) was 10 mm.
In the case of `N#C/C(=N\Nc1ccc(Br)cc1)c1nc2cc(Cl)ccc2o1`, the zone of inhibition at 10 µg/mL (Staphylococcus aureus) is reported as 10 mm, the Activity (MCF7) is reported as “Active” and the Activity (HepG2) is reported as “Active”. For the same compound, the Activity (WiDr) was “inactive”, the Activity (HeLa) was “Active” and the zone of inhibition at 10 µg/mL (Klebsiella pneumoniae) was 10 mm. The zone of inhibition at 10 µg/mL (Pseudomonas aeruginosa) was 10 mm.
`N#C/C(=N\Nc1ccccc1)c1nc2cc(Cl)ccc2o1` was tested, and the zone of inhibition at 10 µg/mL (Staphylococcus aureus) was 10 mm, the Activity (MCF7) was “inactive” and the Activity (HepG2) was “Active”. The Activity (WiDr) was “inactive”, the Activity (HeLa) was “Active” and the zone of inhibition at 10 µg/mL (Klebsiella pneumoniae) was 10 mm. The zone of inhibition at 10 µg/mL (Pseudomonas aeruginosa) was 10 mm.
`COc1ccc(N/N=C(\C#N)c2nc3cc(Cl)ccc3o2)cc1` was tested, and the inhibition at 50 µg/mL (Aspergillus niger) was 65%, the zone of inhibition at 10 µg/mL (Staphylococcus aureus) was 10 mm and the Activity (MCF7) was “Active”. The Activity (HepG2) was “Active”, the Activity (WiDr) was “Active” and the Activity (HeLa) was “Active”. The inhibition at 50 µg/mL (Aspergillus flavus) was 50%, the zone of inhibition at 10 µg/mL (Klebsiella pneumoniae) was 5 mm and the zone of inhibition at 10 µg/mL (Pseudomonas aeruginosa) was 5 mm.
In the case of `COc1cc(/C=C(\C#N)c2nc3cc(Cl)ccc3o2)cc(OC)c1OC`, the inhibition at 50 µg/mL (Aspergillus niger) is reported as 80%, the zone of inhibition at 10 µg/mL (Staphylococcus aureus) is reported as 15 mm and the Activity (MCF7) is reported as “Active”. The Activity (HepG2) was “Active”, the Activity (WiDr) was “Active” and the Activity (HeLa) was “Active”. For the same compound, the inhibition at 50 µg/mL (Aspergillus flavus) was 85%, the zone of inhibition at 10 µg/mL (Klebsiella pneumoniae) was 10 mm and the zone of inhibition at 10 µg/mL (Pseudomonas aeruginosa) was 15 mm.
With `N#C/C(=C\c1ccccc1)c1nc2cc(Cl)ccc2o1` the inhibition at 50 µg/mL (Aspergillus niger) was 65%, the zone of inhibition at 10 µg/mL (Staphylococcus aureus) was 10 mm and the Activity (MCF7) was “Active”. The Activity (HepG2) was “inactive”, the Activity (WiDr) was “inactive” and the Activity (HeLa) was “inactive”. For the same compound, the inhibition at 50 µg/mL (Aspergillus flavus) was 60%, the zone of inhibition at 10 µg/mL (Klebsiella pneumoniae) was 10 mm and the zone of inhibition at 10 µg/mL (Pseudomonas aeruginosa) was 10 mm.
With `N#C/C(=C\c1ccc(O)cc1)c1nc2cc(Cl)ccc2o1` the inhibition at 50 µg/mL (Aspergillus niger) was 50%, the zone of inhibition at 10 µg/mL (Staphylococcus aureus) was 10 mm and the Activity (MCF7) was “inactive”. For the same compound, the Activity (HepG2) was “Active”, the Activity (WiDr) was “inactive” and the Activity (HeLa) was “Active”. It also gave an inhibition at 50 µg/mL (Aspergillus flavus) of 60%, a zone of inhibition at 10 µg/mL (Klebsiella pneumoniae) of 10 mm and a zone of inhibition at 10 µg/mL (Pseudomonas aeruginosa) of 10 mm.
In the case of `N#CC(=C1CCCCC1)c1nc2cc(Cl)ccc2o1`, the inhibition at 50 µg/mL (Aspergillus niger) is reported as 60%, the zone of inhibition at 10 µg/mL (Staphylococcus aureus) is reported as 10 mm and the Activity (MCF7) is reported as “inactive”. For the same compound, the Activity (HepG2) was “Active”, the Activity (WiDr) was “Active” and the Activity (HeLa) was “Active”. It also gave an inhibition at 50 µg/mL (Aspergillus flavus) of 75%, a zone of inhibition at 10 µg/mL (Klebsiella pneumoniae) of 5 mm and a zone of inhibition at 10 µg/mL (Pseudomonas aeruginosa) of 10 mm.
`N#C/C(=N\Nc1ccc(Cl)cc1)c1nc2cc(Cl)ccc2o1` was tested, and the inhibition at 50 µg/mL (Aspergillus niger) was 70%, the zone of inhibition at 10 µg/mL (Staphylococcus aureus) was 5 mm and the Activity (MCF7) was “Active”. For the same compound, the Activity (HepG2) was “inactive”, the Activity (WiDr) was “inactive” and the Activity (HeLa) was “inactive”. It also gave an inhibition at 50 µg/mL (Aspergillus flavus) of 65%, a zone of inhibition at 10 µg/mL (Klebsiella pneumoniae) of 10 mm and a zone of inhibition at 10 µg/mL (Pseudomonas aeruginosa) of 10 mm.
